Data as given in patent US20220000811A1, “COMPOSITION FOR PROMOTING HAIR GROWTH COMPRISING A GUANINE DERIVATIVE” (KOREA RESEARCH INSTITUTE OF BIOSCIENCE AND BIOTECHNOLOGY, priority 2019, published 2022).

Key:
[1] = test system: mouse embryonic fibroblasts (MEFs); assay: Reprogramming into iPSCs (OSKM) in mouse embryonic fibroblasts, AP staining; format: cell-based; settings: for effect on reprogramming, number of AP+ colonies: MEFs, OSKM, after 14 days, indicated concentrations
Method: During reprogramming into iPSCs by introducing OSKM reprogramming factor into mouse embryonic fibroblasts (MEFs), rotenone, the guanidine derivatives of the present invention, and phenformin were treated at the indicated concentrations. After 14 days, alkaline phosphatase (AP) staining was performed (FIG. 2A), and the number of AP^+ colonies was quantified (FIG. 2b). […] In the subsequent experiment, additional efficacy was evaluated using only the three compounds showing the effective reprogramming-enhancing effect.

[2] = test system: human embryonic stem cells (hESCs); assay: Maintaining stemness of human embryonic stem cells in unconditioned medium, AP staining; format: cell-based; settings: hESCs in unconditioned medium, low dose
Method: Additionally, the effect of the compounds of the present invention on maintaining sternness of human embryonic stern cells (hESCs) was confirmed (FIG. 4). Specifically, when hESCs were cultured in an unconditioned medium (UM), the sternness was lost, and AP activity was weakened (FIG. 4a). […] In particular, when IM176OUT05 was treated at 10 nM and 100 nM concentrations, it was confirmed that the effect of maintaining the sternness was improved by 7.6 times and 8.2 times, respectively (FIG. 4b).

[3] = test system: human foreskin fibroblast (HFFs); assay: Reprogramming into iPSCs (OSKM) in human foreskin fibroblasts, AP staining; format: cell-based; settings: OSKM, after 28 days
Method: After 28 days, AP staining was performed (FIG. 3a), and the number of AP^+ colonies was quantified (FIG. 3b).

[4] = test system: C57BL/6 mice; assay: Hair regeneration model, darkness of dorsal skin and hair growth; format: in vivo, mouse; settings: 1% topical daily
Method: During the hair telogen phase, the hair on the dorsal skin of 7-week-old C57BL/6 mice (Dae Han BioLink, Chungbuk, Republic of Korea) was depilated using an animal clipper and wax (Veet, Oxy Reckitt Benckiser, Seoul, Republic of Korea). From the next day, 200 μL of placebo (control), 1% IM, 1% minoxidil, or 1% metformin was applied daily to the depilated area using a sterile cotton swab. Images of each animal were captured daily, and the degree of darkness of the color on dorsal skin was quantified in the same area (1.6 cm×3 cm) using the Image J program. The mice were sacrificed, and skin tissues on days 0, 7, 14, and 20 were obtained. Half of the tissues were used for RNA isolation, and the other half were fixed with 4% paraformaldehyde overnight for histochemical analysis. It was confirmed whether the IM compound can promote hair growth without showing toxicity or other side effects through mouse experiments. In 7-week-old C57BL/6 mice, the telogen phase was motivated by hair removal, and various concentrations of IM were applied topically to the dorsal skin of the mice daily.

[5] = test system: K15/β-catenin, Ki67/Shh, K15/PDK, Ki67/PDH populations; assay: FACS analysis of single skin cells; format: in vivo, mouse
Method: During the hair telogen phase, the hair on the dorsal skin of 7-week-old C57BL/6 mice (Dae Han BioLink, Chungbuk, Republic of Korea) was depilated using an animal clipper and wax (Veet, Oxy Reckitt Benckiser, Seoul, Republic of Korea). From the next day, 200 μL of placebo (control), 1% IM, 1% minoxidil, or 1% metformin was applied daily to the depilated area using a sterile cotton swab. Images of each animal were captured daily, and the degree of darkness of the color on dorsal skin was quantified in the same area (1.6 cm×3 cm) using the Image J program. The mice were sacrificed, and skin tissues on days 0, 7, 14, and 20 were obtained. Half of the tissues were used for RNA isolation, and the other half were fixed with 4% paraformaldehyde overnight for histochemical analysis. After the mice were perfused with PBS to remove blood, the skin tissue was harvested and cut into small pieces. The tissue was digested with trypsin (Thermo Fisher Scientific) at 37° C. for 150 minutes, then filtered through a 75 μm nylon mesh, followed by filtering through a 30 μm mesh (BD Biosciences). Single cells were fixed, permeabilized, and blocked according to the immunostaining protocol. The cells were stained with specific antibodies (Table 1 above) and analyzed with BD Accuri™ C6 (BD Biosciences)

**Q.** Which “effect on reprogramming, number of AP+ colonies” value (“effect on reprogramming, number” below) [1] does the source give for NC(=Nc1ccc(OC(F)(F)F)cc1)N=C(N)N1CCCC1 [IM156] here?
**A.** did not show an effect of promoting reprogramming

**Q.** N=C(N)NC(=N)NCCc1ccc(Cl)c(Cl)c1 [IM176OUT04, N-1-(3,4-dichloro)phenethylbiguanide] was tested. Which “effect on reprogramming, number” value [1] did it give?
**A.** increased

**Q.** And the “AP staining (stemness)” value [2]?
**A.** increase in AP staining

**Q.** And the “concentration with the most excellent reprogramming efficacy” value [3]?
**A.** 10 nM

**Q.** Cc1ccc(CCNC(=N)N)cc1C [IM177OUT02, 1-(3,4-dimethylphenethyl)guanide] was tested. Which “effect on reprogramming, number” value [1] did it give?
**A.** increased

**Q.** What about the “AP staining (stemness)” value [2] of the same compound?
**A.** increase in AP staining

**Q.** What about the “concentration with the most excellent reprogramming efficacy” value [3] of the same compound?
**A.** 10 nM

**Q.** C=C(C)[C@H]1Cc2c(ccc3c2O[C@@H]2COc4cc(OC)c(OC)cc4[C@@H]2C3=O)O1 [Rotenone, reference compound] was tested. Which “promotion of reprogramming of somatic cells” value ([1]; sub-toxic dose (10 nM)) did it give?
**A.** efficiently promote reprogramming

**Q.** Which “hair growth effect overall” value [4] does the source give for CN(C)C(=N)N=C(N)N [metformin, reference compound] here?
**A.** did not show a remarkable effect

**Q.** And the “darkness intensity on the dorsal skin compared to control” value ([4]; from day 8)?
**A.** slightly was increased

**Q.** How did the “K15+/β-catenin+ population in single skin cells” value ([5]; day 7, FACS) turn out when Nc1cc(N2CCCCC2)nc(N)[n+]1[O-] [minoxidil, reference compound] was run?
**A.** 6.0%

**Q.** What about the “Ki67+/PDH+ population” value ([5]; day 7, FACS) of the same compound?
**A.** 8.3%

**Q.** What about the “Ki67+/Shh+ population in single skin cells” value ([5]; day 20, FACS) of the same compound?
**A.** 34%

**Q.** [H]/N=C(/N)N/C(=N/[H])NCCc1ccccc1 [phenformin, reference compound] was tested. Which “effect on reprogramming, number” value [1] did it give?
**A.** did not show an effect of promoting reprogramming
